The record followed here is patent publication US20180140609A1, “USE OF (4-HYDROXY-2-METHYL-1,1-DIOXIDO-2H-BENZO[E][1,2]THIAZINE-3-YL)(NAPHTHALENE-2-YL) METHANONE IN THE PREVENTION AND/OR TREATMENT OF NON-ALCOHOLIC STEATOHEPATITIS” (PIERRE FABRE MEDICAMENT, priority 2015, published 2018).

Where two headings read alike, the source gives them in different places.

Test [1] deals with T1, human 11β-HSD 1 (Homo sapiens, UniProt P28845).
T1 construct: evaluated on primary human adipocytes in culture (ZenBio); host or cells: primary human preadipocytes differentiated into adipocytes, from three donors
The experiment in a line: Inhibition of human 11β-HSD 1 in primary human differentiated adipocytes in culture (cortisone to cortisol, SPA). Type of test: cell-based. The procedure: Inhibition of human 11β-HSD 1 enzyme is evaluated on primary human adipocytes in culture (ZenBio).
Preadipocytes are thawed and their viability is confirmed. The preadipocytes are then placed in 96-well microplates in a specific preadipocyte medium (PM-1) provided by ZenBio; the plates are incubated at 37° C. with 5% CO2. One day or more after the cells are confluent, PM-1 is replaced with a more specific differentiation medium (DM), also provided by ZenBio, containing isobutylmethylxanthine, insulin, dexamethasone and a PPAR agonist. The cells will differentiate into adipocytes after a minimum of 7 days. Next, the mature adipocytes are maintained for 4 to 6 days in adipocyte maintenance medium (AM). Then, in the presence of serum treated with dextran-coated charcoal, the cells are placed in steroid-deficient conditions for 48 h, and are pretreated with the inhibitors to be tested or their carrier (0.1% DMSO) for 1 h at 37° C. before the pulse with cortisone. Tritiated cortisone is added for 4 hours to reach a final concentration of 20 nM. The cortisol concentration is quantified from the cell supernatant using SPA technology. EC50 values are obtained with the SigmaPlot v.11 software, four parameter logistic equation; the reported values come from three different experiments carried out on three different donors.

Test [2] addresses human 11β-HSD type 1 (Homo sapiens, UniProt P28845). Description: Plasma bioactivity after single oral administration in C57BL/6N mice, read as inhibition of human 11β-HSD type 1 (SPA). It counts as in vivo. As to conditions: for inhibition at 2.5 mg/kg / inhibition at 10 mg/kg: po, mice, table with plasma levels; for inhibition at 2.5 mg/kg: 2.5 mg/kg oral; for inhibition at 10 mg/kg: 10 mg/kg oral. The procedure:
The evaluation is made in on 4- to 6-week-old non-fasted male C57BL/6N strain mice. The compounds to be tested or the vehicle (0.5% methylcellulose in water, at 10 ml/kg) are administered orally; n=3 mice per treatment.
Blood samples are collected 1 h and 4 h after administration; the tubes are centrifuged to obtain plasma and frozen at −70° C. until bioanalysis. Plasma bioactivity (2% final volume) is analyzed by using the inhibition of human 11β-HSD type 1 as a detection system (SPA technology) for each compound at each dose tested. Percent inhibition (versus mice treated with carrier) is calculated for each dose.

[3] abbreviates: 1 h, read-out: Plasma 1 h % inh.
The mark [4] stands for this setting: 4 h, read-out: Plasma 4 h % inh.

Sequence of human 11β-HSD type 1 (P28845 whole entry): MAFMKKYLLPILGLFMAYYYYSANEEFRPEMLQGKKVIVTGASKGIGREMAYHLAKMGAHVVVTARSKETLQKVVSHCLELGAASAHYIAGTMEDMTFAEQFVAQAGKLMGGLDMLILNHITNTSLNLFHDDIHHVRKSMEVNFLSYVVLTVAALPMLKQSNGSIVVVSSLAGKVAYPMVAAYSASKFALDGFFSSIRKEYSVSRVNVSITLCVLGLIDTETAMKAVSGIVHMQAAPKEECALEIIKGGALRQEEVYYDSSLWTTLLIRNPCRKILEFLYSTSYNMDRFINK
T1 sequence (P28845 whole entry): as above

On to `CN1C(C(=O)c2ccc3ccccc3c2)=C([O-])c2ccccc2S1(=O)=O.[K+]` [Compound 1K, potassium 3-(2-naphthoyl)-2-methyl-2H-benzo[e][1,2]thiazin-4-olate 1,1-dioxide], for which the “Emax (% inhibition at 10 μM)” value in test [1] (10 μM) was determined as 97 % inhibition. Besides, the concentration giving a half-maximal response (EC50) in test [1] (1 h pretreatment, 20 nM tritiated cortisone 4 h, three donors) turned out to be 58 nM. Further, the “% inhibition at 1 h” value worked out at 47% in test [2] (mouse plasma (2% final volume), 1 h after 0.63 mg/kg oral); 78% in test [2] (mouse plasma, 1 h after 2.5 mg/kg oral); 91% in test [2] (mouse plasma, 1 h after 10 mg/kg oral). The “% inhibition at 4 h” value in test [2] (mouse plasma, 4 h after 0.63 mg/kg oral) stood at 36%; in test [2] (mouse plasma, 4 h after 2.5 mg/kg oral), 67%; in test [2] (mouse plasma, 4 h after 10 mg/kg oral), 86%. The inhibition at 2.5 mg/kg was found to be 75 ± 4% in test [2] (setting [3]) and 63 ± 6% in test [2] (setting [4]). Also, the inhibition at 10 mg/kg in test [2] (setting [3]) came out at 89 ± 1%; in test [2] (setting [4]) it was 85 ± 2%.

A word on the EC50: it is the concentration at which the effect is half-maximal. For orientation: % inhibition means the relative decrease from the control value, in per cent. A high value points to strong suppression.
